We go through one compound from patent US20100247600A1, “THERAPEUTIC DRUG ELUTING IMPLANT COVER AND METHOD OF MAKING THE SAME” (Warsaw Orthopedic, Inc., priority 2009, published 2010).

The data set in a line: Effect of autoclave sterilization on final drug concentration in silicone sleeve. Format: physicochemical. As to conditions: rifampin in silicone sleeve, starting concentration about 0.0738 wt %, autoclave about 30 minutes. As for the experimental part:
FIG. 18 illustrates the effect of sterilization on the final drug concentration, showing the degradation rate versus autoclave time, for example, with a starting concentration of about 0.0738 wt % rifampin in the silicone and running the autoclave about 30 minutes will result in a final concentration of about 0.054 wt % rifampin in the silicone sleeve.
The term “weight percent” or “wt %” means the ratio of the drug weight to the weight of the biocompatible matrix, e.g., the silicone after sterilization, for example, an initial concentration of rifampin of about 0.0738 wt % with about a 30 minute autoclave time will result in a final wt % of about 0.054 in the sterilized product. Other than where expressly indicated, all numbers expressing amounts of materials, concentrations, quantified properties of materials, and so forth, stated in the specification and claims are to be understood as being modified in all instances by the term “about” or “approximately”.

Take `CO[C@H]1/C=C/O[C@@]2(C)Oc3c(C)c(O)c4c(O)c(c(/C=N/N5CCN(C)CC5)c(O)c4c3C2=O)NC(=O)/C(C)=C\C=C\[C@H](C)[C@H](O)[C@@H](C)[C@@H](O)[C@@H](C)[C@H](OC(C)=O)[C@@H]1C` [rifampin]: the “final concentration after autoclave sterilization” value is given as “about 0.054 wt %”.
